Test results reported in ChEMBL document CHEMBL3045757, “Common binding requirements of PPAR-// pan agonists: quantitative structureactivity relationship analysis of indanylacetic acid derivatives carrying 4-thiazolyl-phenoxy tail group” (Med Chem Res, 2012).

Molecular target: T1, Peroxisome proliferator-activated receptor gamma (Homo sapiens, UniProt P37231)
T1 sequence (P37231 whole entry): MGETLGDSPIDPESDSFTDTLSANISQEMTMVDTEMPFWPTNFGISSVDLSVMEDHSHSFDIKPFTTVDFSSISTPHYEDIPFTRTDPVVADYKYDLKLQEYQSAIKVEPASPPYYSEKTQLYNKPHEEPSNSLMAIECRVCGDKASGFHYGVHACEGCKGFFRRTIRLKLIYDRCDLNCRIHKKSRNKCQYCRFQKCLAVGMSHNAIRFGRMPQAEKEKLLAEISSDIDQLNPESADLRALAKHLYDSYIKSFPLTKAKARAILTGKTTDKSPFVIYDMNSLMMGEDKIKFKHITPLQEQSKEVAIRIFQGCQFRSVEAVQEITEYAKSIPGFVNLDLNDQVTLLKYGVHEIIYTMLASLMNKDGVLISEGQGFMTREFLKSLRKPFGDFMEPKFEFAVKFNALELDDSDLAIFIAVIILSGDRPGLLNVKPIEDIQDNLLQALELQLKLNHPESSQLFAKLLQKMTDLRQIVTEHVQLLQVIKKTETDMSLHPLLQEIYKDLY
Assay: Agonist activity at Homo sapiens (human) PPARgamma expressed in mouse 3T3-L1 cells incubated for 2 days followed by compound wash out measured after 4 days by insulin receptor binding assay
Type: cell-based

**Q.** For `CCOc1nc(-c2ccc(OCCCOc3ccc4c(c3)CC[C@H]4CC(=O)O)c(OC)c2)sc1CC`, which EC50 is on record?
**A.** 178 nM
